Legend:
Type in all cases: biochemical
[1] = biological target: T1, full length Aurora-A (AA 1-403) (Homo sapiens, UniProt O14965); experiment: Aurora-A inhibition assay, standard coupled enzyme system; settings: average Ki if more than one value determined
T1 construct: full length Aurora-A (AA 1-403)
T1 sequence (O14965 1-403): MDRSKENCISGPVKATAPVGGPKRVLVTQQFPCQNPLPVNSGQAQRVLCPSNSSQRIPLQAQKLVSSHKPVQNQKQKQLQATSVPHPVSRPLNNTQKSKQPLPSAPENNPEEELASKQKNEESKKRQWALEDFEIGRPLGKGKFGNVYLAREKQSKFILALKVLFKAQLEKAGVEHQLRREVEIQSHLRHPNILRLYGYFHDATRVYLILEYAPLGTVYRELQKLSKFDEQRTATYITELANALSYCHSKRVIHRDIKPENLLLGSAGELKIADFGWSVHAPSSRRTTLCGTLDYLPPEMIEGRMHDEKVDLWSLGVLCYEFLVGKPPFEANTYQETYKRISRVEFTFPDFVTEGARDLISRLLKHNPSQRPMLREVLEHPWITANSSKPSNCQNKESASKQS

Aurora-B = Aurora-B (Homo sapiens, UniProt Q96GD4); experiment: Aurora-B inhibition assay, radioactive assay; settings: average Ki if more than one value determined
Experimental: Compounds were screened for their ability to inhibit JAK3 using a standard radioactive enzyme assay. 1.5 μL/well of a DMSO stock containing serial dilutions of a compound of the present invention (concentrations ranging from 667 μM to 46 nM) was placed in a 96 well polycarbonate plate. 50 μL per well of kinase buffer (100 mM HEPES (pH 7.4), 10 mM MgCl2, 25 mM NaCl, 1 mM DTT, and 0.01% bovine serum albumin (BSA)) containing 2 μM poly(Glu)4Tyr and 10 μM ATP was also added to the plate. To initiate the reaction, 50 μL kinase buffer containing 2 nM JAK3 enzyme was added. Final ATP concentration was 5 μM [γ-^33P] ATP (200 μCi ^33P ATP/μmol ATP (Perkin Elmer, Cambridge, Mass.). After 20 minutes at room temperature (25° C.), the reaction was stopped by adding 50 μL 20% trichloroacetic acid (TCA)/0.4 mM ATP to each well. The entire content of each well was then transferred to a 96 well glass fiber filter plate using a TomTek Cell Harvester. After washing, 60 μL scintillation fluid was added and ^33P incorporation detected using a Perkin Elmer TopCount. After removing mean background values for all of the data points the data was fit using Prism software to obtain a Ki(app). Inhibition of JAK2 was measured as above except that final poly(Glu)4Tyr concentration was 15 μM and final ATP concentration was 12 μM.
Some compounds were screened for their ability to inhibit ROCK using a standard radioactive enzyme assay. Assays were carried out in a solution containing 100 mM HEPES (pH 7.5), 10 mM MgCl2, 25 mM NaCl, 2 mM DTT, and 1.5% DMSO. Final substrate concentrations in the assay were 13 μM [γ-^33P] ATP (25 mCi ^33P ATP/mmol ATP, Perkin Elmer, Cambridge, Mass./Sigma Chemicals, St Louis, Mo.) and 27 μM Myelin Basic Protein (MBP). Final enzyme concentration in the assay was 5 nM ROCK. Assays were carried out at room temperature. 1.5 μl of DMSO stock containing serial dilutions of the compound of the present invention (concentrations ranging from 10 μM to 2.6 nM) was placed in a 96 well plate. 50 μl of Solution 1 (100 mM HEPES (pH 7.5), 10 mM MgCl2, […]) was added to the plate. The reaction was initiated by addition of 50 μl of Solution 2 (100 mM HEPES (pH 7.5), 10 mM MgCl2, 4 mM DTT, […] and 10 nM ROCK). After 2 hours the reaction was quenched with 50 μL of 30% trichloroacetic acid (TCA, Fisher) containing 9 mM ATP. Transfer of 140 μL of the quenched reaction to a glass fiber filter plate (Corning, Cat. No. 3511) was followed by washing 3 times with 5% TCA. 50 μL of Optima Gold scintillation fluid (Perkin Elmer) was added and the plates were counted on a Top Count (Perkin Elmer). After removing mean background values for all of the data points the data was fit using Prism software to obtain a Ki(app).
(§1) An assay stock buffer solution was prepared containing all of the reagents listed above with the exception of ATP and the test compound of interest. The assay stock buffer solution (60 μl) was incubated in a 96 well plate with 2 μl of the test compound of interest at final concentrations spanning 0.002 μM to 30 μM at 30° C. for 10 min. Typically, a 12 point titration was conducted by preparing serial dilutions (from 1 mM compound stocks) with DMSO of the test compounds in daughter plates. The reaction was initiated by the addition of 5 μl of ATP (final concentration 200 μM). Rates of reaction were obtained using a Molecular Devices Spectramax plate reader (Sunnyvale, Calif.) over 10 min at 30° C. The Ki values were determined from the rate data as a function of inhibitor concentration using computerized nonlinear regression (Prism 3.0, Graphpad Software, San Diego, Calif.). Aurora-C activity was screened in a similar manner using Aurora-C protein. Aurora-B activity was screened using a radioactive assay, such as described in Examples 1 and 2, but using Aurora-B protein.

ROCK I (AA 6-553) = biological target: T2, ROCK I (AA 6-553) (Homo sapiens, UniProt Q13464); experiment: ROCK inhibition assay, standard coupled enzyme system ("Enzyme"); settings: enzyme-linked assay
T2 construct: ROCK I (AA 6-553)
Procedure, shortened: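 ROCK I (AA 6-553) at 45 nM and 30 °C with 45 μM ATP and 200 μM peptide, in 100 mM HEPES pH 7.5, 10 mM MgCl2, 25 mM NaCl, 2 mM DTT, 1.5% DMSO. ADP output read by a PK/LDH coupled system: 2.5 mM PEP, 350 μM NADH, 30 μg/ml PK, 10 μg/ml LDH.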

Aurora-C = biological target: T3, Aurora-C (Homo sapiens, UniProt Q9UQB9); experiment: Aurora-C inhibition assay, coupled enzyme system as for Aurora-A; settings: average Ki if more than one value determined
T3 sequence (Q9UQB9 1-309): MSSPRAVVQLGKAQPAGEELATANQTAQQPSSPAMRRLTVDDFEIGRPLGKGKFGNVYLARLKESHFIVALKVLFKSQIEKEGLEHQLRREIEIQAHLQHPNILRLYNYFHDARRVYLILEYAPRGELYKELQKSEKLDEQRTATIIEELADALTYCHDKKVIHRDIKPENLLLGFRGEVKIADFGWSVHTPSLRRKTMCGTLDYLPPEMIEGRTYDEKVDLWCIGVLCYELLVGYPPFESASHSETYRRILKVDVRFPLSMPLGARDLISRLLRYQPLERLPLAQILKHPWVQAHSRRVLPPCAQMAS
Experimental: Compounds were screened for their ability to inhibit full length Aurora-A (AA 1-403) activity using a standard coupled enzyme system (Fox et al., Protein Sci. 7, pp. 2249 (1998)). Reactions were carried out in a solution containing 100 mM HEPES (pH 7.5), 10 mM MgCl2, 25 mM NaCl, 300 μM NADH, 1 mM DTT and 3% DMSO. Final substrate concentrations in the assay were 200 μM ATP (Sigma Chemicals, St Louis, Mo.) and 800 μM peptide (LRRASLG, American Peptide, Sunnyvale, Calif.). Reactions were carried out at 30° C. and 35 nM Aurora-A. Final concentrations of the components of the coupled enzyme system were 2.5 mM phosphoenolpyruvate, 200 μM NADH, 60 μg/ml pyruvate kinase and 20 μg/ml lactate dehydrogenase.
as §1

JAK3 = biological target: T4, JAK3 (Homo sapiens, UniProt P52333); experiment: JAK3 inhibition assay (standard radioactive enzyme assay); settings: average Ki if more than one value determined
T4 sequence (P52333 1-1124): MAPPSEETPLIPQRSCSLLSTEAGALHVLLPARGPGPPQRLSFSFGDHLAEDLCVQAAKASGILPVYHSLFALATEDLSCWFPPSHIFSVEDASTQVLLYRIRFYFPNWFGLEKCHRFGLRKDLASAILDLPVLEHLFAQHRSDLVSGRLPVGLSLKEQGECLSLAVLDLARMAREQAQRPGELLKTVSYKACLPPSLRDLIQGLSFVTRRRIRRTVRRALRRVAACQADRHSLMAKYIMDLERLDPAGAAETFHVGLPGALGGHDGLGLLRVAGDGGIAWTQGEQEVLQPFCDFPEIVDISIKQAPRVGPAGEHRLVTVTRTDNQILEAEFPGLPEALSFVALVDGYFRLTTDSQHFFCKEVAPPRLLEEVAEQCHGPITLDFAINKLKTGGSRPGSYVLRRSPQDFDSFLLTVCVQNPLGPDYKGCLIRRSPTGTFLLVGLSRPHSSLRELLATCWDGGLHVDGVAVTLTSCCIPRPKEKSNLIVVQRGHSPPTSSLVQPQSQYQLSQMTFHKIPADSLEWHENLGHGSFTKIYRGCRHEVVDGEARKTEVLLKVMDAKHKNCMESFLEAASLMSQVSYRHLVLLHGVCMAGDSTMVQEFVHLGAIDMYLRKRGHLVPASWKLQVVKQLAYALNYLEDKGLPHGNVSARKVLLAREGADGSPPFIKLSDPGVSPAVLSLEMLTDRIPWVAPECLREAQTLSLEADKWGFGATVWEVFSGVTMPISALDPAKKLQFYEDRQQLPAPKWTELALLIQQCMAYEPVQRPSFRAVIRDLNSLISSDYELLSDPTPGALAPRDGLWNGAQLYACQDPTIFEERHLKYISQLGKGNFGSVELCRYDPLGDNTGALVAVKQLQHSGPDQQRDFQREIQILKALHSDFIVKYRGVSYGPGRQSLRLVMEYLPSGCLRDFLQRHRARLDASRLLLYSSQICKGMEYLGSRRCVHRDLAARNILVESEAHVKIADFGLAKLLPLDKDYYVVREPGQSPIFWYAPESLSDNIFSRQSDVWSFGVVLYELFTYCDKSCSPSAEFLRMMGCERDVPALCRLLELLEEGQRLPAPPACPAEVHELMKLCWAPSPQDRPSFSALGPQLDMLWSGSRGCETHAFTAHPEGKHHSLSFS

Chain of Aurora-B (Q96GD4 whole entry): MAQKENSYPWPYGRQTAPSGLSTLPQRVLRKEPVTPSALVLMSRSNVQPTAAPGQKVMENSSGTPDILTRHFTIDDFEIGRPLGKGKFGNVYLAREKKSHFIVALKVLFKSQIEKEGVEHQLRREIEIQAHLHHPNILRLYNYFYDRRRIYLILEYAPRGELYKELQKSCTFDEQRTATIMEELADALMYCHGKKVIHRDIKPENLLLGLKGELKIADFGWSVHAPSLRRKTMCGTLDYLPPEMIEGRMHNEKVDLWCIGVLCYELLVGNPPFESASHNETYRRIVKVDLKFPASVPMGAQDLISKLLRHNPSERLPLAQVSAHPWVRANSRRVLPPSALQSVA
T2 sequence (Q13464 6-553, species assumed): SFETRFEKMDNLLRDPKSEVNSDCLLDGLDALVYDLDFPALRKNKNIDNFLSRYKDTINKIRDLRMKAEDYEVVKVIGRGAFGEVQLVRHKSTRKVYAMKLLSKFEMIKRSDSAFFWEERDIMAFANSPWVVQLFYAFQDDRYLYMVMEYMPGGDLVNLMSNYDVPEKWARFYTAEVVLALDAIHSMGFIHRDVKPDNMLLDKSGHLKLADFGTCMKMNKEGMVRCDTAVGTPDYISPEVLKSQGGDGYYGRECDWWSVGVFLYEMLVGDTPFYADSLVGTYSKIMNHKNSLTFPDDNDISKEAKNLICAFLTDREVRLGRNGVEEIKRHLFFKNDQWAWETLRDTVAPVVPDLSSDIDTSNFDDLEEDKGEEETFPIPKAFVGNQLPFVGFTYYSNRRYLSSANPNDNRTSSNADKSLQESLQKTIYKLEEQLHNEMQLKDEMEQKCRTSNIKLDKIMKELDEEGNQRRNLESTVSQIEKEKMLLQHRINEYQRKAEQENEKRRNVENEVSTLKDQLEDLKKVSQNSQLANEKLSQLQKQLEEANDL

Row | Ki [1] [nM] | Ki (Aurora-B) [nM] | Ki (ROCK I (AA 6-553)) [nM] | Ki (Aurora-C) [nM] | Ki (JAK3) [nM] | SMILES
1 | < 500 | 500 to 5000 | 500 to 5000 | < 500 |  | C[C@H](Nc1nc(-c2c[nH]c3ncc(Cl)cc23)ncc1F)c1cccc(O[C@H]2CCNC2)c1 [Compound 321]
2 | < 500 | < 500 | 500 to 5000 | < 500 |  | C[C@H](Nc1cc(C(=O)O)nc(-c2c[nH]c3ncc(Cl)cc23)n1)c1ccc(F)cc1 [Compound 323]
3 | < 500 | < 500 | 500 to 5000 | < 500 |  | Cc1cc(N[C@@H](C)c2ccc(F)cc2)nc(-c2c[nH]c3ncc(Cl)cc23)n1 [Compound 324]
4 | < 500 | < 500 | 500 to 5000 | < 500 |  | Fc1cnc(-c2c[nH]c3ncc(Cl)cc23)nc1NCC1CCCCN1 (stereo not drawn) [Compound 325]
5 | < 500 | < 500 | < 500 | < 500 |  | Fc1cnc(-c2c[nH]c3ncc(Cl)cc23)nc1NCC1CCCNC1 (stereo not drawn) [Compound 326]
6 | < 500 |  | 500 to 5000 | < 500 | < 500 | C[C@H](Nc1nc(-c2c[nH]c3ncc(Cl)cc23)ncc1F)C(=O)NCCO [Compound 391]
7 | < 500 | 500 to 5000 |  | < 500 |  | CCS(=O)(=O)NCCNC(=O)[C@H](C)Nc1nc(-c2c[nH]c3ncc(Cl)cc23)ncc1F [Compound 445]
8 | < 500 | < 500 |  | < 500 |  | C[C@H](Nc1nc(-c2c[nH]c3ncc(Cl)cc23)ncc1F)C(=O)NCCNC(=O)OCc1ccccc1 [Compound 458]
9 | < 500 | < 500 |  | < 500 |  | C[C@H](Nc1nc(-c2c[nH]c3ncc(Cl)cc23)ncc1F)C(=O)NCCC#N [Compound 461]

Reference: US8501446B2 (Vertex Pharmaceuticals Incorporated, priority 2004, dated 2013)
